Data as given in PubChem BioAssay AID248 (DTP/NCI, 2004).
Values joined by “and” are separate entries in the source; they are usually repeats but may differ in a detail not shown here. Equal entries are not always repeated. Inconclusive results and toxic doses are left out. Rule as the data show it: active = T/C of 150% or more; inactive = T/C below 125%.

System: L1210 leukemia ip in BDF1 mice, survival T/C
Assay: NCI In Vivo Anticancer Drug Screen. Data for tumor model L1210 Leukemia (intraperitoneal) in B6D2F1 (BDF1) mice
Details: endpoint: mean survival time, higher = longer survival
Procedure, shortened: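 Tumor cells were implanted, animals were treated, and survival was followed. The result divides the treated measurement by the vehicle-control measurement.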

[1] = dose: 100.0 mg/kg/injection, schedule: Q04DX003 (ip), vehicle: Klucel (hydroxypropylcellulose) (HPC)
[2] = dose: 100.0 mg/kg/injection, schedule: Q01DX001 (ip), vehicle: saline
[3] = dose: 200.0 mg/kg/injection, schedule: Q01DX001 (ip), vehicle: saline

Measured: T/C

Cc1ccc(C(C)C)c(OC(=O)Nc2ccc(Cl)cc2)c1
inactive: dose: 100.0 mg/kg/injection, schedule: Q01DX001 (ip), vehicle: Klucel (hydroxypropylcellulose) (HPC) 95 % of control | dose: 100.0 mg/kg/injection, schedule: Q01DX009 (ip), vehicle: Klucel (hydroxypropylcellulose) (HPC) 96 % of control and 103 % of control | dose: 100.0 mg/kg/injection, schedule: Q04DX002 (ip), vehicle: Klucel (hydroxypropylcellulose) (HPC) 98 % of control and 102 % of control | [1] 100 % of control and 120 % of control | dose: 200.0 mg/kg/injection, schedule: Q01DX001 (ip), vehicle: Klucel (hydroxypropylcellulose) (HPC) 88 % of control | dose: 200.0 mg/kg/injection, schedule: Q01DX009 (ip), vehicle: Klucel (hydroxypropylcellulose) (HPC) 98 % of control and 100 % of control | dose: 200.0 mg/kg/injection, schedule: Q04DX002 (ip), vehicle: Klucel (hydroxypropylcellulose) (HPC) 102 % of control | dose: 200.0 mg/kg/injection, schedule: Q04DX003 (ip), vehicle: Klucel (hydroxypropylcellulose) (HPC) 104 % of control and 124 % of control | dose: 400.0 mg/kg/injection, schedule: Q01DX001 (ip), vehicle: Klucel (hydroxypropylcellulose) (HPC) 88 % of control | dose: 400.0 mg/kg/injection, schedule: Q01DX009 (ip), vehicle: Klucel (hydroxypropylcellulose) (HPC) 96 % of control and 91 % of control | dose: 400.0 mg/kg/injection, schedule: Q04DX002 (ip), vehicle: Klucel (hydroxypropylcellulose) (HPC) 94 % of control and 98 % of control | dose: 400.0 mg/kg/injection, schedule: Q04DX003 (ip), vehicle: Klucel (hydroxypropylcellulose) (HPC) 96 % of control

C[N+](C)(C)CCC[N+](C)(C)CCN1C(=O)c2cccc3cccc(c23)C1=O
inactive: dose: 6.25 mg/kg/injection, schedule: Q01DX001 (ip), vehicle: saline 103 % of control | dose: 12.5 mg/kg/injection, schedule: Q01DX001 (ip), vehicle: saline 103 % of control | dose: 25.0 mg/kg/injection, schedule: Q01DX001 (ip), vehicle: saline 103 % of control | dose: 50.0 mg/kg/injection, schedule: Q01DX001 (ip), vehicle: saline 101 % of control

O=C(O)CCCCNC(=O)c1ccc([N+](=O)[O-])cc1
inactive: dose: 100.0 mg/kg/injection, schedule: Q01DX001 (ip), vehicle: saline with Tween-80 99 % of control | dose: 200.0 mg/kg/injection, schedule: Q01DX001 (ip), vehicle: saline with Tween-80 94 % of control | dose: 400.0 mg/kg/injection, schedule: Q01DX001 (ip), vehicle: saline with Tween-80 87 % of control

Cc1cc(C)nc(/N=N/c2nc(C)cc(C)n2)n1
inactive: dose: 55.0 mg/kg/injection, schedule: Q01DX Z (ip), vehicle: saline 95 % of control | dose: 83.0 mg/kg/injection, schedule: Q01DX Z (ip), vehicle: saline 91 % of control | dose: 125.0 mg/kg/injection, schedule: Q01DX Z (ip), vehicle: saline 103 % of control

Cc1cc(C)c(S(=O)(=O)O)c(Cc2cccc3ccccc23)c1
inactive: dose: 25.0 mg/kg/injection, schedule: Q01DX009 (ip), vehicle: saline 94 % of control | dose: 50.0 mg/kg/injection, schedule: Q01DX009 (ip), vehicle: saline 102 % of control | dose: 50.0 mg/kg/injection, schedule: Q04DX003 (ip), vehicle: saline 94 % of control | [2] 93 % of control | dose: 100.0 mg/kg/injection, schedule: Q01DX009 (ip), vehicle: saline 96 % of control | dose: 100.0 mg/kg/injection, schedule: Q04DX003 (ip), vehicle: saline 98 % of control | [3] 88 % of control

CCCC[Si](C)(C)CCCC
inactive: [2] 103 % of control | [3] 105 % of control | dose: 400.0 mg/kg/injection, schedule: Q01DX001 (ip), vehicle: saline 100 % of control

O=c1[nH]cnc2c1ncn2CCCCCCl
inactive: [1] 102 % of control

CCN(/C=C1\CCOC1=O)CC
inactive: dose: 100.0 mg/kg/injection, schedule: Q04DX002 (ip), vehicle: saline 101 % of control | dose: 200.0 mg/kg/injection, schedule: Q04DX002 (ip), vehicle: saline 97 % of control

COC(=O)C1=COC(C)C2CN3CCc4c([nH]c5cc(OC)c(OC)cc45)C3CC12 (stereo not given)
inactive: dose: 50.0 mg/kg/injection, schedule: Q01DX Z (ip), vehicle: carboxymethylcellulose (CMC) 103 % of control | dose: 100.0 mg/kg/injection, schedule: Q01DX Z (ip), vehicle: carboxymethylcellulose (CMC) 105 % of control | dose: 200.0 mg/kg/injection, schedule: Q01DX Z (ip), vehicle: carboxymethylcellulose (CMC) 100 % of control | dose: 300.0 mg/kg/injection, schedule: Q01DX Z (ip), vehicle: carboxymethylcellulose (CMC) 105 % of control

O=[N+]([O-])c1ccc(C=C2C=c3ccccc3=C2)cc1
inactive: dose: 12.5 mg/kg/injection, schedule: Q04DX003 (ip), vehicle: Klucel (hydroxypropylcellulose) (HPC) 94 % of control | dose: 25.0 mg/kg/injection, schedule: Q04DX003 (ip), vehicle: Klucel (hydroxypropylcellulose) (HPC) 96 % of control | dose: 50.0 mg/kg/injection, schedule: Q04DX003 (ip), vehicle: Klucel (hydroxypropylcellulose) (HPC) 97 % of control

CCOP(=O)(OCC)c1ccccc1Br
inactive: dose: 100.0 mg/kg/injection, schedule: Q01DX001 (ip), vehicle: acetone 89 % of control | dose: 200.0 mg/kg/injection, schedule: Q01DX001 (ip), vehicle: acetone 87 % of control | dose: 400.0 mg/kg/injection, schedule: Q01DX001 (ip), vehicle: acetone 89 % of control
